“Also recorded” adds a separate entry of the source.
Assays:
p-ERK [1] = test: Minipig non-GLP 28-day dermal tolerability study: p-ERK suppression in skin; assay type: in vivo; conditions: Compound 1.003 in gel formulation (NA-1a), 0.01% and 0.1%, 28 days
Method: Non-GLP 28-Day Dermal Tolerability Study: 4 doses of A-D formulations applied to each of 4 pigs (2 females, 2 males), where A: vehicle (NA-1a without Compound 1.003) at 30 uL/cm^2; B: NA-1a-0.01% at 10 uL/cm^2; C: NA-1a-0.1% at 30 uL/cm^2; and D: NA-1a-0.1% at 10 uL/cm^2. Minipigs were treated […] for 28 days. Biopsy obtained 4 hours after last dose on Day 28.

p-ERK [2] = test: p-ERK suppression in rat skin by oral administration; assay type: in vivo
Method: p-ERK suppression in rat skin was evaluated by oral administration of Compound 1.003.

[3] = test system: phosphorylated-ERK1/2 (pERK); test: Human cSCC explant: immunohistochemistry for p-ERK; assay type: cell-based; conditions: 0.1% Compound 1.003 in NA-1a gel formulation on epidermal surface for 4 hours, vs vehicle
COLO 16 = test: CellTiter-Glo Luminescent Cell Viability Assay, SCC cells COLO 16; assay type: cell-based, human; conditions: 72 hours, 0.01-30 μM, compared to NHEK
ICI = test: CellTiter-Glo Luminescent Cell Viability Assay, SCC cells ICI; assay type: cell-based, human; conditions: 72 hours, 0.01-30 μM, compared to NHEK
cSCC [4] = test: UV-driven mouse model of cSCC, chemoprevention study: number of tumors; assay type: in vivo, Hairless SKH-1E mice
Method: 136, no. 9, 2016, pp. 1920-1924 by Adelmann, C. H., et al., the entirety of which is incorporated herein by reference for all purposes. UV radiation was administered using a solar simulator (Oriel) metered at 12.5 kJ/m^2 UVB weekly, 3.4 SED for three months on Hairless SKH-1E mice.
Samples: The gel formulation (NA-1a) including Compound 1.003 in an amount of 0.1%, 0.5%, 1.0%, and 2.3% by weight of the formulation was used in the study.
(§1) A UV-driven mouse model was used to test if a topical formulation including Compound 1.003 could be used to reduce tumor burden in vivo. […] Once a mouse developed one tumor that measured 3 mm in diameter, they were randomly assigned to receive Vehicle, 0.1% Compound 1.003, 0.5% Compound 1.003, 1.0% Compound 1.003, or 2.3% Compound 1.003. Once enrolled, mice were treated with 200 uL of vehicle or the gel formulation of Compound 1.003. Drug was evenly applied to the back skin of the mouse and allowed to dry. Mice were treated for 30 days (5 d/week). […] Skin biopsies were obtained 4 hours after drug treatment at end of study.

p-ERK1/2 = test: UV-driven mouse model of cSCC: nano-immunoassay for p-ERK1/2 and total ERK1/2 in skin biopsies; assay type: in vivo, Hairless SKH-1E mice
Method: as §1

[5] = UV-driven mouse model of cSCC: tolerability (skin, body weight); assay type: in vivo, Hairless SKH-1E mice; conditions: topical 0.1%-2.3%, 30 days
Method: as §1

cSCC [6] = test: UV-driven mouse model of cSCC, split-mouse study: total tumor burden; assay type: in vivo, Hairless SKH-1E mice; conditions: split-control, 1.0% Compound 1.003 on one side, vehicle on the other, 30 days, n=5
Method: To internally control for potential systemic exposure, 5 mice were treated in split-control fashion with one side getting vehicle only and the other side of the same mouse receiving topical 1.0% Compound 1.003. Total tumor burden (summed volume) is quantified in untreated vs. treated sides at the beginning (black) as compared to the end of treatment 30 days later (n=5).
To definitively address the possibility of systemic exposure and non-local effects of topically applied Compound 1.003, 5 mice was treated in split-control fashion with one side with vehicle only and the other side with 1.0% Compound 1.003.

p-ERK [7] = test: Ex vivo human cutaneous neurofibroma explants (Example 16): p-ERK by Western Blot; assay type: cell-based; conditions: Compound 1.003 0.5% and 1.5%, topical on explant, 4 hours
Method: Biopsies of cutaneous neurofibroma were taken from patients undergoing excision of neurofibromas for clinical purposes. The ex vivo human explant model was established by incubating sections of biopsies of human cutaneous neurofibroma. Cutaneous Neurofibroma samples were removed from patients, transferred immediately to the lab in 15 ml […] tubes containing 5 ml DMEM/F-12 medium (Thermo Fisher, Cat #11320033) supplemented with 1XB27 supplement (Gibco™ B-27™ Supplement (50×) serum free (Cat #17504044), 2.5 μg/ml of Amphotericin B (Thermo Fisher, Cat #15290018), and 50 units/ml of Penicillin-50 μg/ml of Streptomycin (Thermo Fisher, Cat #15070063), and 10% human serum (Gemini 100-110). Skin samples divided to smaller 3-4 mm pieces and placed dermal side down onto membranes (Transwell Permeable Supports, 12 well plate, Corning 12 mm Transwell® with 3.0 μm Pore Polycarbonate Membrane Insert, Sterile Corning #3402). The edges of the samples were sealed with semisoft 3% agarose (Sigma, CAS 9012-36-6) prepared in DMEMF-12 medium, and the apical surface was kept in contact with air to use formulations. […]
Western Blot analysis: Frozen skin samples were thawed on ice and weighed. […] The lysate protein concentration was determined by the BCA protein assay kit using bovine serum albumin (BSA) as standards. […]

p-ERK [8] = test: Ex vivo cutaneous neurofibroma explants (Example 20): p-ERK by immunohistochemistry; assay type: cell-based, human; conditions: 3 μl of gel formulation on explant; 0.1% or 0.5% by weight
Method: The study was conducted using a protocol similar to Example 16 with some modifications as described below.
Skin samples divided to smaller 3-4 mm pieces and placed dermal side down onto membranes. The edges of the samples were sealed with semisoft 3% agarose prepared in DMEMF-12 medium, and the apical surface was kept in contact with air to use formulations. The basal surface was in contact with the growth medium DMEMF-12 containing 10% human serum, Amphotericin B, Penicillin-Streptomycin and 1XB27. This set up enables testing of transdermal drug delivery while the tissues remain viable in the medium for the duration of the test. 3 μl of the test formulation was used.
Immunohistochemistry: Immunohistochemistry for p-ERK was performed using standard operating procedures and fully automated workflow.
3 μl of the test formulation was used.

in vivo = conditions: rat, po, 300 mg/kg/day
[9] = systemic exposure; cited from earlier work

## Cn1c(Nc2ccc(I)cc2F)c(C(=O)NOCCO)c2cccnc21 [Compound 1.003]
p-ERK [1]
  suppression of p-ERK in minipig skin (FIG. 1): dose dependent suppression of p-ERK
p-ERK [2]; rat skin, oral, various doses
  change of p-ERK after oral administration (FIG. 2): no change of p-ERK
p-ERK [2]; rat, 21-days of oral administration at 300 mg/kg/day
  suppression of p-ERK in the skin: not observed
[3]
  suppression of p-ERK in human cSCC specimens (immunohistochemistry): robust suppression of p-ERK
COLO 16
  cell viability, COLO 16: dose dependent reduction in cell viability
ICI
  cell viability, ICI: dose dependent reduction in cell viability
cSCC [4]; 0.1% in gel (NA-1a), 30 days, n=10 mice, vehicle 60 tumors
  number of tumors at the end of treatment, 0.1%: 31 tumors
cSCC [4]; 0.5% in gel (NA-1a), 30 days, n=10 mice, vehicle 60 tumors
  number of tumors at the end of treatment, 0.5%: 23 tumors
cSCC [4]; 1.0% dose and above, 30 days, n=10 per group
  suppression of new tumors at 1.0% dose and above: near complete suppression of new tumors
cSCC [4]; 1.0% in gel (NA-1a), 30 days, n=10 mice, vehicle 60 tumors
  number of tumors at the end of treatment, 1.0%: 13 tumors
cSCC [4]; 2.3% in gel (NA-1a), 200 uL, 30 days (5 d/week), n=10 mice, vehicle 60 tumors
  number of tumors at the end of treatment, 2.3%: 16 tumors
cSCC [4]; gel formulation (NA-1a), 0.1%-2.3%, 30 days
  total tumors / new tumor formation (FIG. 5): dramatically suppresses new tumor formation; also recorded: suppression of total tumors
cSCC [4]; highest doses of Compound 1.003, vs vehicle
  decrease in the total number of tumors present at the end of treatment: approximately 4 fold
p-ERK1/2; 0.1% and greater vs vehicle, biopsies 4 hours after drug treatment at end of study
  p-ERK levels in skin biopsies (nano-immunoassay): suppression of p-ERK levels
p-ERK1/2; concentrations 0.6 or greater (so in the source), in %
  suppression of p-ERK levels in mouse skin (FIG. 6B, text): ≥ 65
p-ERK1/2; mouse skin treated with Compound 1.003
  suppression of p-ERK levels in mouse skin (FIG. 6B legend): ≥ 65%
[5]
  skin peeling or erosions: No skin peeling or erosions were observed
  weight loss (biweekly weight measurement): no weight loss
cSCC [6]
  total tumor volume / tumor burden on the treated side: Substantial tumor regression and tumor suppression; also recorded: decreased to nearly undetectable levels
p-ERK [7]
  suppression of p-ERK by Western Blot analysis: complete suppression of p-ERK
p-ERK [8]
  suppression of p-ERK by immunohistochemistry: Dose dependent suppression
In vivo
  Cmax: ~1360 ng/mL

## O=C1CCCc2c1sc(Nc1ccc(I)cc1F)c2C(=O)NOCCO [Compound 2.003]
p-ERK [8]
  suppression of p-ERK by immunohistochemistry: Dose dependent suppression

## O=C(NOC[C@H](O)CO)c1ccc(F)c(F)c1Nc1ccc(I)cc1F [PD0325901]
[9]
  side effects in clinical trials: neurological side effects associated with ataxia, confusion, and syncope

Source: patent US12310950B2, “Formulations of pyrrolopyridine-aniline compounds” (NFLECTION THERAPEUTICS, INC., priority 2021, dated 2025)
